Measured values published in publication PMC9583322, “Vicinal Diaryl-Substituted Isoxazole and Pyrazole Derivatives with In Vitro Growth Inhibitory and In Vivo Antitumor Activity” (ACS Omega, 2022).

Assays:
Test in all cases: NCI-60 single-dose screen
Format in all cases: cell-based
[1] = test system: SNB-75; settings: Homo sapiens, SNB-75, CNS Cancer, read-out: % Growth Inhibition (GI%)
Description: (§1) Moreover, in vitro single-dose anticancer screening of 11 and 85 at 10 μM was performed utilizing the stable panel of 60 cell lines comprising 9 different cancer types at the National Cancer Institute (NCI) under the Developmental Therapeutics Program (Table S1).[31]

[2] = test system: MDA-MB-231; settings: Homo sapiens, MDA-MB-231, Breast Cancer, read-out: % Growth Inhibition (GI%)
Description: as §1

[3] = test system: SK-MEL-5; settings: Homo sapiens, SK-MEL-5, Melanoma, read-out: % Growth Inhibition (GI%)
Description: as §1

[4] = test system: EKVX; settings: Homo sapiens, Non-Small Cell Lung Cancer, read-out: % Growth Inhibition (GI%)
Description: as §1

[5] = test system: SF-295; settings: Homo sapiens, SF-295, CNS Cancer, read-out: % Growth Inhibition (GI%)
Description: as §1

[6] = test system: CCRF-CEM; settings: Homo sapiens, Leukemia, read-out: % Growth Inhibition (GI%)
Description: as §1

[7] = test system: NCI-H226; settings: Homo sapiens, NCI-H226, Non-Small Cell Lung Cancer, read-out: % Growth Inhibition (GI%)
Description: as §1

[8] = test system: UACC-62; settings: Homo sapiens, UACC-62, Melanoma, read-out: % Growth Inhibition (GI%)
Description: as §1

[9] = test system: A498; settings: Homo sapiens, A498, Renal Cancer, read-out: % Growth Inhibition (GI%)
Description: as §1

[10] = test system: MALME-3M; settings: Homo sapiens, Melanoma, read-out: % Growth Inhibition (GI%)
Description: as §1

[11] = test system: SF-268; settings: Homo sapiens, SF-268, CNS Cancer, read-out: % Growth Inhibition (GI%)
Description: as §1

[12] = test system: U251; settings: Homo sapiens, U-251, U251, CNS Cancer, read-out: % Growth Inhibition (GI%)
Description: as §1

[13] = test system: HCT-116; settings: Homo sapiens, HCT-116, Colon Cancer, read-out: % Growth Inhibition (GI%)
Description: as §1

[14] = test system: SR; settings: Homo sapiens, Leukemia, read-out: % Growth Inhibition (GI%)
Description: as §1

[15] = test system: MCF7; settings: Homo sapiens, MCF7, Breast Cancer, read-out: % Growth Inhibition (GI%)
Description: as §1

[16] = test system: HCT-15; settings: Homo sapiens, HCT-15, Colon Cancer, read-out: % Growth Inhibition (GI%)
Description: as §1

[17] = test system: RXF 393; settings: Homo sapiens, RXF 393, Renal Cancer, read-out: % Growth Inhibition (GI%)
Description: as §1

[18] = test system: HCC-2998; settings: Homo sapiens, HCC-2998, Colon Cancer, read-out: % Growth Inhibition (GI%)
Description: as §1

[19] = test system: NCI-H522; settings: Homo sapiens, NCI-H522, Non-Small Cell Lung Cancer, read-out: % Growth Inhibition (GI%)
Description: as §1

[20] = test system: SK-MEL-2; settings: Homo sapiens, SK-MEL-2, Melanoma, read-out: % Growth Inhibition (GI%)
Description: as §1

[21] = test system: M14; settings: Homo sapiens, M14, Melanoma, read-out: % Growth Inhibition (GI%)
Description: as §1

[22] = test system: KM12; settings: Homo sapiens, KM12, Colon Cancer, read-out: % Growth Inhibition (GI%)
Description: as §1

[23] = test system: SK-MEL-28; settings: Homo sapiens, SK-MEL-28, Melanoma, read-out: % Growth Inhibition (GI%)
Description: as §1

[24] = test system: OVCAR-4; settings: Homo sapiens, OVCAR-4, Ovarian Cancer, read-out: % Growth Inhibition (GI%)
Description: as §1

[25] = test system: COLO 205; settings: Homo sapiens, COLO 205, Colon Cancer, read-out: % Growth Inhibition (GI%)
Description: as §1

[26] = test system: A549/ATCC; settings: Homo sapiens, Non-Small Cell Lung Cancer, read-out: % Growth Inhibition (GI%)
Description: as §1

[27] = test system: RPMI-8226; settings: Homo sapiens, RPMI-8226, Leukemia, read-out: % Growth Inhibition (GI%)
Description: as §1

[28] = test system: IGROV1; settings: Homo sapiens, IGROV-1, IGROV1, Ovarian Cancer, read-out: % Growth Inhibition (GI%)
Description: as §1

[29] = test system: CAKI-1; settings: Homo sapiens, CAKI-1, Renal Cancer, read-out: % Growth Inhibition (GI%)
Description: as §1

[30] = test system: MOLT-4; settings: Homo sapiens, MOLT-4, Leukemia, read-out: % Growth Inhibition (GI%)
Description: as §1

[31] = test system: SK-OV-3; settings: Homo sapiens, SK-OV-3, Ovarian Cancer, read-out: % Growth Inhibition (GI%)
Description: as §1

[32] = test system: DU-145; settings: Homo sapiens, DU-145, Prostate Cancer, read-out: % Growth Inhibition (GI%)
Description: as §1

[33] = test system: LOX-IMVI; settings: Homo sapiens, Melanoma, read-out: % Growth Inhibition (GI%)
Description: as §1

[34] = test system: UO-31; settings: Homo sapiens, UO-31, Renal Cancer, read-out: % Growth Inhibition (GI%)
Description: as §1

[35] = test system: UACC-257; settings: Homo sapiens, UACC-257, Melanoma, read-out: % Growth Inhibition (GI%)
Description: as §1

[36] = test system: NCI-H460; settings: Homo sapiens, NCI-H460, Non-Small Cell Lung Cancer, read-out: % Growth Inhibition (GI%)
Description: as §1

| Compound | inhibition at 10 µM [1] | inhibition at 10 µM [2] | inhibition at 10 µM [3] | inhibition at 10 µM [4] | inhibition at 10 µM [5] | inhibition at 10 µM [6] | inhibition at 10 µM [7] | inhibition at 10 µM [8] | inhibition at 10 µM [9] | inhibition at 10 µM [10] | inhibition at 10 µM [11] | inhibition at 10 µM [12] | inhibition at 10 µM [13] | inhibition at 10 µM [14] | inhibition at 10 µM [15] | inhibition at 10 µM [16] | inhibition at 10 µM [17] | inhibition at 10 µM [18] | inhibition at 10 µM [19] | inhibition at 10 µM [20] | further results |
| --- | --- | --- | --- | --- | --- | --- | --- | --- | --- | --- | --- | --- | --- | --- | --- | --- | --- | --- | --- | --- | --- |
| Cc1ccccc1COc1ccc(-c2noc(C)c2-c2ccc(Cl)cc2)cc1 [compound 11, 4-(4-Chlorophenyl)-5-methyl-3-(4-((2-methylbenzyl)oxy)phenyl)isoxazole] | 47.1% | 79.2% | 26.6% | 24.9% | 50.6% | 61.8% | 42.8% | 51.5% | 61.4% | 40.2% | 24.4% | 58.7% | 66% | 66% | 68.3% | 62.5% | 29.8% | 13.4% | 74.5% | 62.9% | inhibition at 10 µM [21]: 67.8%; inhibition at 10 µM [22]: 45.7%; inhibition at 10 µM [23]: 29.6%; inhibition at 10 µM [24]: 17.3%; inhibition at 10 µM [25]: 29%; inhibition at 10 µM [26]: 50.7%; inhibition at 10 µM [27]: 19%; inhibition at 10 µM [28]: 47.5%; inhibition at 10 µM [29]: 51.3%; inhibition at 10 µM [30]: 67.2%; inhibition at 10 µM [31]: 40.5%; inhibition at 10 µM [32]: 22.6%; inhibition at 10 µM [33]: 32%; inhibition at 10 µM [34]: 25.6%; inhibition at 10 µM [35]: 29.1%; inhibition at 10 µM [36]: 45.3% |
| Cc1ccccc1COc1ccc(-c2ccnn2-c2ccc(Cl)cc2)cc1 [compound 85, 1-(4-Chlorophenyl)-5-(4-((2-methylbenzyl)oxy)phenyl)-1H-pyrazole] | 39.3% | 75.8% | 33.4% | 22.9% | 46.9% | 57.6% | 29.7% | 39.3% | 42.5% | 32.8% | 19.5% | 54% | 61.9% | 66.2% | 68.1% | 60.1% | 39.7% | 10.9% | 70.9% | 60.8% | inhibition at 10 µM [21]: 61%; inhibition at 10 µM [22]: 49.3%; inhibition at 10 µM [23]: 30.6%; inhibition at 10 µM [24]: 14.3%; inhibition at 10 µM [25]: 28.8%; inhibition at 10 µM [26]: 50.5%; inhibition at 10 µM [27]: 22.6%; inhibition at 10 µM [28]: 42.5%; inhibition at 10 µM [29]: 40.3%; inhibition at 10 µM [30]: 73.7%; inhibition at 10 µM [31]: 36.3%; inhibition at 10 µM [32]: 11.9%; inhibition at 10 µM [33]: 35.7%; inhibition at 10 µM [34]: 25.6%; inhibition at 10 µM [35]: 24.3%; inhibition at 10 µM [36]: 41.7% |
